Results taken from patent US11400102B2, “Treatment for bacterial infections with salicylic acid analogs” (priority 2019, dated 2022).

How the values were obtained:
[1] = system: yersiniabactin; experiment: 13C labeled salicylic acid incorporation into Ybt in culture; type: cell-based; conditions: FIG. 12 middle panel
[2] = system: yersiniabactin; experiment: 13C labeled salicylic acid in infection model, labeled Ybt in mouse urine; type: in vivo; conditions: FIG. 12 right panel

Question: `O=C(O)[13c]1[13cH][13cH][13cH][13cH][13c]1O` [^13C labeled salicylic acid] was tested. Which “incorporation of labeled compound into Ybt during culture” value [1] did it give?
Answer: The value was “incorporated”.

Question: And the “labeled compound in mouse urine by mass spectrometry” value [2]?
Answer: Its value is “detectable”.
